The NIST ThermoML archive (doi:10.1016/j.fluid.2005.12.029)
± gives the expanded uncertainty stated by the source.

Experiment: excess molar enthalpy (molar enthalpy of mixing); xn = mol fraction of the nth substance listed
Conditions: 308.15 K, 12400 kPa, Fluid (supercritical or subcritical phases)

CCCCCC [hexane] + CO
Conditions | excess molar enthalpy [kcal/mol]
x2 = 0.032 | 0.0609 ± 0.00215
x2 = 0.062 | 0.081 ± 0.00239
x2 = 0.118 | 0.0966 ± 0.00263
x2 = 0.145 | 0.113 ± 0.00311
x2 = 0.17 | 0.117 ± 0.00311
x2 = 0.218 | 0.125 ± 0.00335
x2 = 0.249 | 0.129 ± 0.00335
x2 = 0.803 | 0.113 ± 0.00311
x2 = 0.828 | 0.107 ± 0.00287
x2 = 0.851 | 0.0978 ± 0.00287
x2 = 0.872 | 0.0877 ± 0.00263
x2 = 0.903 | 0.0727 ± 0.00215
x2 = 0.928 | 0.0593 ± 0.00215
x2 = 0.959 | 0.0347 ± 0.00191

CCCCCCCCO [octan-1-ol] + CCCCCC
Conditions | excess molar enthalpy [kcal/mol]
x1 = 0.033 | 0.0741 ± 0.00239
x1 = 0.05 | 0.086 ± 0.00239
x1 = 0.101 | 0.102 ± 0.00287
x1 = 0.153 | 0.111 ± 0.00287
x1 = 0.206 | 0.117 ± 0.00311
x1 = 0.3 | 0.122 ± 0.00311
x1 = 0.397 | 0.12 ± 0.00311
x1 = 0.447 | 0.115 ± 0.00311
x1 = 0.503 | 0.109 ± 0.00287
x1 = 0.602 | 0.0949 ± 0.00263
x1 = 0.653 | 0.0822 ± 0.00239
x1 = 0.696 | 0.0715 ± 0.00191
x1 = 0.749 | 0.059 ± 0.00167
x1 = 0.789 | 0.0483 ± 0.00143
x1 = 0.858 | 0.0313 ± 0.0012
x1 = 0.904 | 0.0163 ± 0.000956
x1 = 0.928 | 0.0148 ± 0.00717
x1 = 0.952 | 0.00526 ± 0.000956
